# Values of other authors as cited in patent US11129815B2, “Solid dispersions comprising tacrolimus” (Veloxis Pharmaceuticals A/S, priority 2003, dated 2021).
# How the values were obtained:
# [1] = not given; remark: listed apart in the source
smiles,measurement,setting,value
C=CC[C@@H]1/C=C(\C)C[C@H](C)C[C@H](OC)[C@H]2O[C@@](O)(C(=O)C(=O)N3CCCC[C@H]3C(=O)O[C@H](/C(C)=C/[C@@H]3CC[C@@H](O)[C@H](OC)C3)[C@H](C)[C@@H](O)CC1=O)[C@H](C)C[C@@H]2OC [Tacrolimus],solubility in chloroform,chloroform,very soluble
same,solubility in ethanol,ethanol,freely soluble
same,solubility in methanol,methanol,very soluble
same,solubility in water,water,practically insoluble
same,bioavailability,[1]; after oral administration,≤ 20%
same,mean time-to-peak concentration (tmax),"[1]; oral administration, healthy subjects or kidney or liver transplanted patients",1 to 2 h
